This note sets out measurements from patent publication US5763443A, “MDR resistance treatment and novel pharmaceutically active riminophenazines” (priority 1994, dated 1998).

Data set [1] deals with human small cell lung cancer cell line H69/P. Kind of data set: MTT assay, 7 day exposure, sensitivity of parent cell line H69/P to chemotherapeutic agents. The class given is cell-based. The procedure: (§1) The riminophenazines of the above formula (I), contain an imino group. […] The potency of compounds of the above general formula, as inhibitors of multi-drug resistance, was assessed by sensitization of a P-glycoprotein positive cell line to drugs associated with this form of resistance. A human small cell lung cancer cell line H 69/P as well as a multi-drug resistance (MDR) sub-line H69/LX4 were used. These cell lines were obtained from the Medical Research Council Clinical Oncology and Radiotherapeutics Unit, Hills Road, Cambridge, England. The H69/LX4 line was selected in vitro by progressive exposure to increasing concentrations of doxorubicin in order to increase P-glycoprotein expression.
(§2) The cell lines used were human small cell lung cancer cell line HP69/P and a multi-drug resistant (MDR) sub-line H69/LX4, both of which were supplied by the MRC Clinical Oncology and Radiotherapeutics Unit, Hills Road, Cambridge, England. The maintenance of the cell lines and drug response assays was done as described by Twentyman et al in British Journal of Cancer Volume 65 pages 335-340. The H69/LX4 line was originally described by Twentyman et al in British Journal of Cancer Volume 53, pages 529-637 (1986).
(§3) The data in parenthesis represents fold sensitivity compared with the chemotherapeutic agent without the MDR inhibitor.
In general terms: Tetrazolium assays rely on reduction of a dye to a coloured formazan, in cell work by metabolically active cells.

For data set [2], the system named is multi-drug resistant (MDR) lung carcinoma cell line H69/LX4. Kind of data set: in vitro. Particulars: for IC50: Homo sapiens; for INCREASED SENSITIVITY H69/Lx4: Table VIII, values equal IC50 NONE / IC50 with VB 25 ng/ml of Table VII, 10080 min. The protocol: as §1, §2, §3
(§4) The results obtained, are illustrated graphically in FIGS. 4 to 7 of the accompanying drawings.
(§5) The general procedure set forth above was followed, i.e. 7 days incubation in the4 presence of doxorubicin at 12,5 ng/ml or vinblastine at 25 or 3 ng/ml.
(§6) The effects were examined over a seven (7) day exposure to different concentrations of B4119 and B4125 on the sensitivity of a doxorubicin resistant leukaemia cell line (K562/MMB) and a lung carcinoma cell line (H69/LX4) to doxorubicin (dox) and vinblastine (VB) using the MTT assay.

In data set [3] the test system is MDR leukaemia cell line K562/MMB. Put plainly: cells. Particulars: for IC50: Homo sapiens, K562, read-out: IC 50 K562/MMB VB 3 ng/ml, Table VII, with vinblastine 3 ng/ml; for MDR activity / sensitivity against cell line K562/MMP: compared with known reference compound B4100. The procedure: A third cell line (562/MMB) used was a MDR leukemia cell line selected in vitro by progressive exposure to increasing concentrations of vinblastine in order to increase P-glycoprotein expression. This cell line was developed in the Department of Immunology, University of Pretoria from K562 (ATCC CCL 243) supplied by Highveld Biological (Pty) Ltd, Sandton.
as §5, §6

For another data set, the system named is H69/LX4 cells. Kind of data set: [14C]-vinblastine accumulation in MDR cell line. Format: cell-based, human. Particulars: 1 hour pretreatment, 30 minutes [14C]-vinblastine. The procedure:
The effect of riminophenazines on the accumulation of [^14 C]-vinblastine was investigated. For these experiments, both of the above cell lines (H69/LX4 and H69/P) were prepared as described by Coley et al (Biochem. Pharmacal 38, 4467-4475 (1989)). After a 1 hour pretreatment with the MDR reversal agents, cells (1×10^6 /ml) were exposed to […] [^14 C]-vinblastine (1 μCi specific activity) for 30 minutes.

A further data set is described as follows: in vitro. Particulars: human, h69/lx4 cells. The protocol: as §1, §2, §3, §4, §5, §6
Data set [4] is described as follows: bio-availability (no method given).
Setting [5] is: H69/P, CsA 5 μg/ml, clofazimine 1 μg/ml or B669 0.5 μg/ml.
Where [6] appears, read: H69/LX4, CsA 5 μg/ml, clofazimine 1 μg/ml or B669 0.5 μg/ml.
Setting [7] is: 168 h, read-out: IC 50 H69/Lx4 NONE.
Where [8] appears, read: read-out: IC 50 H69/Lx4 DOX 12 ng/ml.
Where [9] appears, read: read-out: IC 50 H69/Lx4 VB 25 ng/ml.
Where [10] appears, read: Table VIII, values equal IC50 NONE / IC50 with VB 3 ng/ml of Table VII, 10080 min.

The structures appear in SMILES notation. Values after ≈ are worked out from the molar mass of the structure shown. Values joined by “and” are separate entries in the source; they are usually repeats but may differ in a detail not shown here. Identical values can stand only once. Like-named read-outs stand apart in the source and are kept apart here.

As for `c1ccc(Nc2cc3nc4ccccc4n(-c4ccccc4)c-3cc2=NC2CCCCC2)cc1` [Compound B669], in data set [1] (setting [5]), the “fold sensitivity to Cyclophosphamide compared with agent without MDR inhibitor” value worked out at 1.0 fold, the “fold sensitivity to Daunorubicin compared with agent without MDR inhibitor” value stood at 1.2 fold, the “fold sensitivity to Doxorubicin compared with agent without MDR inhibitor” value is reported as 1.0 fold and the “fold sensitivity to Etoposide compared with agent without MDR inhibitor” value turned out to be 1.2 fold. Also, in data set [1] (setting [5]), the “fold sensitivity to Methotrexate compared with agent without MDR inhibitor” value came out at 1.0 fold, the “fold sensitivity to Mitomycin C compared with agent without MDR inhibitor” value is on record as 0.7 fold and the “fold sensitivity to Vinblastine compared with agent without MDR inhibitor” value came out at 1.1 fold. Moreover, in data set [2] (setting [6]), the “fold sensitivity to Cyclophosphamide compared with agent without MDR inhibitor” value is recorded as 1.1 fold, the “fold sensitivity to Daunorubicin compared with agent without MDR inhibitor” value worked out at 2.4 fold, the “fold sensitivity to Doxorubicin compared with agent without MDR inhibitor” value was determined as 6.9 fold and the “fold sensitivity to Etoposide compared with agent without MDR inhibitor” value was found to be 14.4 fold. In data set [2] (setting [6]), the “fold sensitivity to Methotrexate compared with agent without MDR inhibitor” value was 0.9 fold; the “fold sensitivity to Mitomycin C compared with agent without MDR inhibitor” value was 2.5 fold; the “fold sensitivity to Vinblastine compared with agent without MDR inhibitor” value was 13.7 fold and ~13 fold. For the same molecule, the IC50 in data set [2] (setting [7]) is 1 µg/mL (≈ 2.25 µM). Also, the IC50 in data set [2] (setting [8]) is 0.996 µg/mL (≈ 2.24 µM). Besides, the IC50 in data set [2] (setting [9]) stood at 0.254 µg/mL (≈ 0.571 µM). For the same molecule, the “INCREASED SENSITIVITY H69/Lx4” value in data set [2] was determined as 3.94. In data set [3], the IC50 was 0.023 µg/mL (≈ 0.0517 µM) and the “MDR activity / sensitivity against cell line K562/MMP” value was “good activity”. Besides, the “INCREASED SENSITIVITY K 562/MMB” value in data set [3] (setting [10]) is 6.04. Moreover, the “vinblastine accumulation in the MDR cell line” value in the data set on H69/LX4 cells is given as “significant enhancement”.
Regarding `CC1(C)CC(N=c2cc3n(-c4cc(Cl)c(Cl)c(Cl)c4)c4ccccc4nc-3cc2Nc2cc(Cl)c(Cl)c(Cl)c2)CC(C)(C)N1` [Compound B4169, N,5-bis(3,4,5-trichiorophenyl)-3,5-dihydro-3-[(2',2',6',6'-tetramethyl-4-piperidyl)-imino]-2-phenazinamine], the MNTC at 168 h in “in vitro” was above 12.5 µg/mL. The “MDR reversal properties” value in data set [2] (H69/LX4, with doxorubicin 12,5 ng/ml or vinblastine 25 ng/ml, FIGS. 4 to 7) is recorded as “Very good MDR reversal properties”. For the same molecule, the values for the IC50 in data set [2] (setting [7]), in data set [2] (setting [8]) and in data set [2] (setting [9]) were 1.57 µg/mL (≈ 2.21 µM), 1.08 µg/mL (≈ 1.53 µM) and 0.213 µg/mL (≈ 0.301 µM), respectively. Further, the “INCREASED SENSITIVITY H69/Lx4” value in data set [2] is 7.36. Besides, the “INCREASED SENSITIVITY K 562/MMB” value in data set [3] (setting [10]) is recorded as 24.66. Moreover, the “MDR activity / sensitivity against cell line K562/MMP” value in data set [3] was “increased substantially and unexpectedly”. The “bio-availability” value in data set [4] is “good bio-availability”.
Consider `CC(C)N=c1cc2n(-c3ccc(Cl)cc3)c3ccccc3nc-2cc1Nc1ccc(Cl)cc1` [Compound B663, N,5-bis-(4-chlorophenyl)-3,5-dihydro-3-[(1-methylethyl)imino]-2-phenazinamine, reference compound], for which the “fold sensitivity to Etoposide compared with agent without MDR inhibitor” value in data set [1] (168 h, 1 ug/mL) came out at 0.6 fold. Also, in data set [1] (setting [5]), the “fold sensitivity to Cyclophosphamide compared with agent without MDR inhibitor” value stood at 0.9 fold, the “fold sensitivity to Daunorubicin compared with agent without MDR inhibitor” value is reported as 1.0 fold, the “fold sensitivity to Doxorubicin compared with agent without MDR inhibitor” value was determined as 0.8 fold and the “fold sensitivity to Methotrexate compared with agent without MDR inhibitor” value stood at 0.9 fold. In data set [1] (setting [5]), the “fold sensitivity to Mitomycin C compared with agent without MDR inhibitor” value was 0.7 fold and the “fold sensitivity to Vinblastine compared with agent without MDR inhibitor” value was determined as 1.3 fold. For the same molecule, the “fold sensitivity to Etoposide compared with agent without MDR inhibitor” value in data set [2] (168 h, 1 ug/mL) is recorded as 5.0 fold. Besides, in data set [2] (setting [6]), the “fold sensitivity to Cyclophosphamide compared with agent without MDR inhibitor” value was determined as 1.0 fold, the “fold sensitivity to Daunorubicin compared with agent without MDR inhibitor” value came out at 4 fold, the “fold sensitivity to Doxorubicin compared with agent without MDR inhibitor” value stood at 11 fold and the “fold sensitivity to Methotrexate compared with agent without MDR inhibitor” value is given as 0.7 fold. In data set [2] (setting [6]), the “fold sensitivity to Mitomycin C compared with agent without MDR inhibitor” value is 1.7 fold and the “fold sensitivity to Vinblastine compared with agent without MDR inhibitor” value is reported as around 13 fold. In addition, the “fold sensitivity to Vinblastine compared with agent without MDR inhibitor” value in data set [2] (H69/LX4, CsA 5 μg/ml, clofazimine 1 μg/ml or B669 0.5 μg/ml, listed as Clofazimine (B663)) is listed as 13.7 fold. Also, in data set [2] (setting [7]), the IC50 came out at 2.5 µg/mL (≈ 5.28 µM). For the same molecule, the IC50 in data set [2] (setting [8]) came to 1.31 µg/mL (≈ 2.78 µM). The IC50 in data set [2] (setting [9]) came out at 0.372 µg/mL (≈ 0.786 µM). For the same molecule, the “INCREASED SENSITIVITY H69/Lx4” value in data set [2] stood at 6.72. In data set [3], the IC50 was determined as 0.038 µg/mL (≈ 0.0803 µM) and the “MDR activity / sensitivity against cell line K562/MMP” value is given as “good activity”. For the same molecule, the “INCREASED S[…] 562/MMB” value in data set [3] (setting [10]) came to 5.92. In addition, in the data set on H69/LX4 cells, the “vinblastine accumulation in the MDR cell line” value is “significant enhancement”.
